Several values for one entry are separate records, joined by “and”; a condition that tells them apart may be missing. Equal entries are not always repeated. Toxic doses and inconclusive results are not listed. No stated cut-off is given here; in the data, active means T/C of 150% or more; inactive means T/C below 125%.
Test system: L1210 leukemia ip in BDF1 mice, survival T/C
Assay: NCI In Vivo Anticancer Drug Screen. Data for tumor model L1210 Leukemia (intraperitoneal) in B6D2F1 (BDF1) mice
Settings: endpoint: mean survival time, higher = longer survival
Method in brief: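 Value reflects the ratio of survival in compound-treated mice to survival in vehicle-treated controls, with both groups carrying the same transplanted tumor.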

[1] = dose: 100.0 mg/kg/injection, schedule: Q01DX001 (ip), vehicle: saline
[2] = dose: 200.0 mg/kg/injection, schedule: Q01DX001 (ip), vehicle: saline
[3] = dose: 400.0 mg/kg/injection, schedule: Q01DX001 (ip), vehicle: saline
[4] = dose: 50.0 mg/kg/injection, schedule: Q01DX001 (ip), vehicle: carboxymethylcellulose (CMC)
[5] = dose: 100.0 mg/kg/injection, schedule: Q01DX001 (ip), vehicle: carboxymethylcellulose (CMC)
[6] = dose: 200.0 mg/kg/injection, schedule: Q01DX001 (ip), vehicle: carboxymethylcellulose (CMC)
[7] = dose: 400.0 mg/kg/injection, schedule: Q01DX001 (ip), vehicle: carboxymethylcellulose (CMC)
[8] = dose: 100.0 mg/kg/injection, schedule: Q01DX009 (ip), vehicle: Klucel (hydroxypropylcellulose) (HPC)
[9] = dose: 200.0 mg/kg/injection, schedule: Q01DX009 (ip), vehicle: Klucel (hydroxypropylcellulose) (HPC)
[10] = dose: 400.0 mg/kg/injection, schedule: Q01DX009 (ip), vehicle: Klucel (hydroxypropylcellulose) (HPC)
[11] = dose: 100.0 mg/kg/injection, schedule: Q04DX003 (ip), vehicle: Klucel (hydroxypropylcellulose) (HPC)
[12] = dose: 200.0 mg/kg/injection, schedule: Q04DX003 (ip), vehicle: Klucel (hydroxypropylcellulose) (HPC)
[13] = dose: 400.0 mg/kg/injection, schedule: Q04DX003 (ip), vehicle: Klucel (hydroxypropylcellulose) (HPC)

Measured: T/C

O=C1CC2CCCCN2C2=C1CCCC2 (stereo unspecified)
inactive: dose: 25.0 mg/kg/injection, schedule: Q01DX009 (ip), vehicle: alcohol 101 % of control | dose: 50.0 mg/kg/injection, schedule: Q01DX009 (ip), vehicle: alcohol 98 % of control | dose: 100.0 mg/kg/injection, schedule: Q01DX009 (ip), vehicle: alcohol 93 % of control

Nc1cn(C2OC(CO)C(O)C2O)c(=O)[nH]c1=O (stereo unspecified)
inactive: [1] 97 % of control | [2] 124 % of control | [3] 100 % of control

S=C([S-])N1CCOCC1.S=C([S-])N1CCOCC1.[Zn]
inactive: dose: 4.68 mg/kg/injection, schedule: Q01DX009 (ip), vehicle: saline 90 % of control | dose: 9.37 mg/kg/injection, schedule: Q01DX009 (ip), vehicle: saline 86 % of control | dose: 18.75 mg/kg/injection, schedule: Q01DX009 (ip), vehicle: saline 91 % of control | dose: 18.75 mg/kg/injection, schedule: Q04DX003 (ip), vehicle: saline 100 % of control | dose: 37.5 mg/kg/injection, schedule: Q04DX003 (ip), vehicle: saline 100 % of control | dose: 75.0 mg/kg/injection, schedule: Q01DX001 (ip), vehicle: saline 90 % of control

N=c1ncn(C2OC(CO[P+](N)(O)O)C(O)C2O)c2nc[nH]c12 (stereo unspecified)
inactive: dose: 12.5 mg/kg/injection, schedule: Q01DX005 (ip), vehicle: water 110 % of control | dose: 25.0 mg/kg/injection, schedule: Q01DX005 (ip), vehicle: water 106 % of control

S=C(Nc1ccccc1)N1CCN2CCCCC2C1 (stereo unspecified)
inactive: dose: 75.0 mg/kg/injection, schedule: Q01DX001 (ip), vehicle: acetone 100 % of control | dose: 150.0 mg/kg/injection, schedule: Q01DX001 (ip), vehicle: acetone 107 % of control | dose: 300.0 mg/kg/injection, schedule: Q01DX001 (ip), vehicle: acetone 92 % of control

CCOC(=O)C1=C(C#N)C(C(=O)OCC)c2ncccc21 (stereo unspecified)
inactive: dose: 50.0 mg/kg/injection, schedule: Q01DX005 (ip), vehicle: saline 97 % of control | dose: 100.0 mg/kg/injection, schedule: Q01DX005 (ip), vehicle: saline 88 % of control | dose: 200.0 mg/kg/injection, schedule: Q01DX005 (ip), vehicle: saline 87 % of control | dose: 400.0 mg/kg/injection, schedule: Q01DX005 (ip), vehicle: saline 95 % of control

O=P(NC1CCCCC1)(NC1CCCCC1)c1ccccc1
inactive: dose: 100.0 mg/kg/injection, schedule: Q04DX002 (ip), vehicle: gum acacia 104 % of control | dose: 200.0 mg/kg/injection, schedule: Q04DX002 (ip), vehicle: gum acacia 93 % of control | dose: 400.0 mg/kg/injection, schedule: Q04DX002 (ip), vehicle: gum acacia 96 % of control

O=[N+]([O-])c1ccc(CSCc2ccccc2)cc1
inactive: [4] 102 % of control | [5] 102 % of control | [6] 109 % of control | [7] 98 % of control

CC(C)(c1ccc(OCCO)cc1)c1ccc(OCCO)cc1
inactive: dose: 100.0 mg/kg/injection, schedule: Q01DX009 (ip), vehicle: saline with Tween-80 97 % of control | dose: 200.0 mg/kg/injection, schedule: Q01DX009 (ip), vehicle: saline with Tween-80 98 % of control | dose: 400.0 mg/kg/injection, schedule: Q01DX009 (ip), vehicle: saline with Tween-80 93 % of control

CC1(C)C(OS(C)(=O)=O)C(C)(C)C1OS(C)(=O)=O (stereo unspecified)
inactive: [4] 111 % of control | [5] 121 % of control | dose: 100.0 mg/kg/injection, schedule: Q01DX001 (sc), vehicle: carboxymethylcellulose (CMC) 108 % of control | [6] 100 % of control | dose: 200.0 mg/kg/injection, schedule: Q01DX001 (sc), vehicle: carboxymethylcellulose (CMC) 108 % of control | [7] 100 % of control | dose: 400.0 mg/kg/injection, schedule: Q01DX001 (sc), vehicle: carboxymethylcellulose (CMC) 100 % of control

COc1ccc(NC(c2ccco2)P(=O)(c2ccccc2)c2ccccc2)cc1 (stereo unspecified)
inactive: [8] 91 % of control | [9] 104 % of control | [10] 98 % of control

CCOC1(OCC)CCC2(CC1)c1ccccc1-c1ccccc12
inactive: [11] 92 % of control | [12] 93 % of control | [13] 95 % of control

CCOC(=O)C(=Cc1ccccc1)C(=O)OCC
inactive: [1] 96 % of control | dose: 100.0 mg/kg/injection, schedule: Q04DX002 (ip), vehicle: Klucel (hydroxypropylcellulose) (HPC) 98 % of control | [2] 100 % of control | dose: 200.0 mg/kg/injection, schedule: Q04DX002 (ip), vehicle: Klucel (hydroxypropylcellulose) (HPC) 95 % of control | [3] 100 % of control | dose: 400.0 mg/kg/injection, schedule: Q04DX002 (ip), vehicle: Klucel (hydroxypropylcellulose) (HPC) 102 % of control

O=C(Nc1ccc(CC2=NCCN2)cc1)c1cccc(C(=O)Nc2ccc(CC3=NCCN3)cc2)c1
inactive: dose: 6.5 mg/kg/injection, schedule: Q01DX Z (ip), vehicle: carboxymethylcellulose (CMC) 100 % of control | dose: 9.7 mg/kg/injection, schedule: Q01DX Z (ip), vehicle: carboxymethylcellulose (CMC) 93 % of control | dose: 14.6 mg/kg/injection, schedule: Q01DX Z (ip), vehicle: carboxymethylcellulose (CMC) 94 % of control | dose: 22.0 mg/kg/injection, schedule: Q01DX Z (ip), vehicle: carboxymethylcellulose (CMC) 94 % of control | dose: 22.2 mg/kg/injection, schedule: Q01DX Z (ip), vehicle: carboxymethylcellulose (CMC) 95 % of control

O=C(COc1ccccc1[N+](=O)[O-])Nc1ccccc1C(=O)O
inactive: dose: 100.0 mg/kg/injection, schedule: Q01DX001 (ip), vehicle: saline with Tween-80 92 % of control | dose: 200.0 mg/kg/injection, schedule: Q01DX001 (ip), vehicle: saline with Tween-80 92 % of control

CCOP(OCC)Oc1ccccc1
inactive: dose: 100.0 mg/kg/injection, schedule: Q04DX003 (ip), vehicle: saline with Tween-80 92 % of control | dose: 200.0 mg/kg/injection, schedule: Q04DX003 (ip), vehicle: saline with Tween-80 109 % of control | dose: 400.0 mg/kg/injection, schedule: Q04DX003 (ip), vehicle: saline with Tween-80 100 % of control

NC(N)=N/N=C/c1cc([N+](=O)[O-])ccc1OCC(=O)O
inactive: dose: 60.0 mg/kg/injection, schedule: Q01DX Z (oral), vehicle: methylcellulose (MC) 98 % of control | dose: 120.0 mg/kg/injection, schedule: Q01DX Z (oral), vehicle: methylcellulose (MC) 98 % of control | dose: 240.0 mg/kg/injection, schedule: Q01DX Z (ip), vehicle: methylcellulose (MC) 95 % of control | dose: 240.0 mg/kg/injection, schedule: Q01DX Z (oral), vehicle: methylcellulose (MC) 115 % of control | dose: 360.0 mg/kg/injection, schedule: Q01DX Z (ip), vehicle: methylcellulose (MC) 93 % of control | dose: 480.0 mg/kg/injection, schedule: Q01DX Z (ip), vehicle: methylcellulose (MC) 100 % of control | dose: 480.0 mg/kg/injection, schedule: Q01DX Z (oral), vehicle: methylcellulose (MC) 102 % of control

Cc1c(O)c([N+](=O)[O-])cc2c1OCOC2
inactive: [11] 96 % of control | [12] 102 % of control | [13] 93 % of control

c1ccc(-c2ccc([Si](c3ccccc3)(c3ccccc3)c3ccccc3)cc2)cc1
inactive: [8] 102 % of control | [11] 105 % of control | [9] 96 % of control | [12] 94 % of control | [10] 93 % of control | [13] 96 % of control

CC1CN(c2ccc([N+](=O)[O-])cc2)C(C)CN1 (stereo unspecified)
inactive: dose: 6.25 mg/kg/injection, schedule: Q01DX009 (ip), vehicle: saline 102 % of control | dose: 12.5 mg/kg/injection, schedule: Q01DX009 (ip), vehicle: saline 91 % of control | dose: 25.0 mg/kg/injection, schedule: Q01DX009 (ip), vehicle: saline 102 % of control | dose: 50.0 mg/kg/injection, schedule: Q01DX009 (ip), vehicle: saline 97 % of control and 101 % of control | dose: 100.0 mg/kg/injection, schedule: Q01DX009 (ip), vehicle: saline 88 % of control | dose: 100.0 mg/kg/injection, schedule: Q04DX003 (ip), vehicle: saline 98 % of control | dose: 200.0 mg/kg/injection, schedule: Q04DX003 (ip), vehicle: saline 100 % of control

CCOC(=O)C1(C(=O)OCC)CCC(O)N1C(=O)c1cc2c(cc1[N+](=O)[O-])OCO2 (stereo unspecified)
inactive: [11] 91 % of control | [12] 99 % of control | [13] 100 % of control

From PubChem BioAssay AID248 (DTP/NCI, 2004)
